Assay results: article PMC9103699, “Myoglobin Interaction with Lactate Rapidly Releases Oxygen: Studies on Binding Thermodynamics, Spectroscopy, and Oxygen Kinetics” (International Journal of Molecular Sciences, 2022)
Entries after “also recorded” stand apart in the source; their conditions may differ.

Experiments:
[1] = target: T1, deoxy-Mb (Equus caballus, UniProt P68082); test: Time-resolved UV-Vis spectroscopy of LAC-incubated deoxy-Mb; design: species or system horse; settings: data not shown
T1 construct: Horse heart muscle myoglobin (Mb), chicken egg white lysozyme, sodium lactate (LAC), and sodium dithionite were purchased from Sigma Aldrich; purchased Sigma Aldrich, St. Louis, MO, USA; host or cells: horse heart muscle
T1 sequence (P68082 whole entry): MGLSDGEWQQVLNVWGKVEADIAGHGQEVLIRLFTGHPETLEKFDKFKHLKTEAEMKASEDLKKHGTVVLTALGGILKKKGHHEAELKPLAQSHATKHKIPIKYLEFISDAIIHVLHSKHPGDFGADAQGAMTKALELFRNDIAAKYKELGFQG
Description: (§1) The change in the spectral characteristics of Mb alone and LAC-bound Mb were recorded using UV-Vis spectroscopy (Polarstar Omega, BMG Labtech, ortenberg, Germany). All the sample preparations and the concentrations used were similar to the ITC experiments. After degassing Mb and LAC samples either with O2 or N2 gas in sealed vials, appropriate volumes of the samples were collected using a Hamilton glass syringe (1cc), mixed in a glass cuvette, and sealed immediately; time-resolved spectra were recorded immediately at 25 °C for a period of 75 min. All spectral data were collected at 5 min time intervals. All the spectral experiments were performed 3 times (n = 3).

[2] = target: deoxy-Mb; design: method as in PMID 8663546; settings: pH 6.5, spectrophotometric, tonometry; cited from earlier work
[3] = target: T2, equine oxy-Mb (Equus caballus, UniProt P68082); test: O2 release kinetics from oxy-Mb (Oxytherm+ respirometer); type: biochemical
T2 construct: Horse heart muscle myoglobin (Mb), chicken egg white lysozyme, sodium lactate (LAC), and sodium dithionite were purchased from Sigma Aldrich; purchased Sigma Aldrich, St. Louis, MO, USA; host or cells: horse heart muscle
T2 sequence (P68082 whole entry): as above
Description: Figure 4 Effect of lactate binding to oxy-Mb and O2 release kinetics. Oxygen kinetics is studied using Oxytherm+ respirometer. All experiments were performed with 50 mM sodium phosphate buffer (pH 7.0, pH 6.4, and pH 6.0) containing 150 µM equine oxy-Mb and varying concentrations of lactate (0.625 mM to 2.5 mM) and oxy-Mb alone as a control. (a) A representative graph showing addition of lactate eliciting a rapid release of O2 from oxy-Mb at pH 6.4. Arrows in the figure indicate the point of addition of oxy-Mb and LAC into buffer during the run. (b) Rate of release of O2 from Mb against lactate concentrations with buffers (pH 7.0, pH 6.4, and pH 6.0). […] All O2 kinetic experiments were repeated 3 times (n = 3). Statistical analysis was performed using one-way ANOVA and the Tukey–Kramer post hoc test. […] Among all the test groups, only statistically […] groups are shown with horizontal lines and two asterisks.
The O2 concentrations (release and binding) during the ligand interactions with Mb in the solution were measured using Oxytherm+ liquid-phase oxygen electrode system (Hansatech Instruments, Norfolk, UK). The Oxytherm+ respirometer is an advanced instrument routinely used for respiration studies.
The measurement of dissolved O2 is calculated at the given temperature and atmospheric pressure according to the following equation [64]: Cs = 14.16 − (0.394 × T) + (0.007714 × T^2) − (0.0000646 × […])(3) where Cs is the saturated O2 concentration in ppm and T is the temperature in °C.
1 ppm is equivalent to 1 µg/mL or (1 µg/32 g/mol) = 0.03125 µmol/mL or 31.25 nmol/mL.
Similarly, deoxy-Mb protein alone (i.e., without LAC) was also tested. All the experiments were carried out at a constant temperature of 25 °C using a Peltier thermostat. The solutions were mixed at 50 rpm using a small magnetic stirring bar placed inside the sample container. Samples were injected into the buffer solution (50 mM sodium phosphate) at varying pH levels (pH 6.0–7.0) using a Hamilton glass syringe (1cc) after achieving equilibrium. Ligand was added to the Mb protein. Appropriate buffer controls voiding either Mb or LAC were used to nullify any artefacts. O2 kinetic experiments were also performed. All the kinetic experiments were performed 3 times (n = 3) and data obtained from statistical analysis are presented here.

[4] = target: T3, equine deoxy-Mb (Equus caballus, UniProt P68082); test: ITC binding of lactate to deoxy-Mb; settings: for Kd: n = 5; for c value: c = nKa[M]t; for ΔS°: from ΔG = ΔH − TΔS
T3 construct: Horse heart muscle myoglobin (Mb), chicken egg white lysozyme, sodium lactate (LAC), and sodium dithionite were purchased from Sigma Aldrich; purchased Sigma Aldrich, St. Louis, MO, USA; host or cells: horse heart muscle
T3 sequence (P68082 whole entry): as above
Description: (§2) Preparations enriched in oxygenated and deoxygenated forms of Mb were prepared as described by our earlier publication related to Mb interaction with fatty acids and acylcarnitines. Briefly, 500 µM of Mb was dissolved in 50 mM sodium phosphate buffer of desired test pH. To promote conversion of ferric (Fe^3+) to ferrous (Fe^2+) iron, 3 mM of sodium dithionite was added to the protein solution with gentle mixing. Thereafter, the solution was subjected to a desalting column to remove the reducing agent and to remove the interference, particularly in O2 release kinetics and UV-Vis spectroscopy absorbance peaks. […] Thereafter, purging the protein solution enriched in oxy- and deoxy-Mb with either O2 or N2 gas, respectively, was performed continuously for 10 min. Formation of oxy- and deoxy-Mb were confirmed based on their characteristic peaks using UV-visible spectroscopy. All the experiments were performed in three different pH conditions (7.0, 6.4, and 6.0), mimicking intracellular physiological and acidic pH states that would be typically observed in skeletal muscle cells in “rested” and “active” (hyperlactatemia) conditions.
(§3) Protein-ligand binding experiments were performed using isothermal titration calorimetry (ITC) (Microcal PEAQ-ITC, Malvern, Chester County, PA, USA). Before starting the experiment, both the ligand solution and the protein solution were purged with either O2 or N2 for 10 min. Both the protein and LAC solutions were thermally equilibrated to 25 °C prior to the start of the titration. LAC was loaded in the […] at an initial concentration of 50 µM and titrated against 500 µM of either oxy- or deoxy-Mb solution, maintaining a 1:10 ratio between ligand and protein. To obtain the working c-value between 10 ≤ c ≤ 500 [51], different protein to ligand molar ratios (1:2, 1:5, 1:10, and 1:20) were tested, and based on the c-value, the molar ratio of 1:10 was selected for all ITC binding studies. A total of 19 injections (2 µL each) from the syringe were used to generate the ITC curves within each experiment. During the experimental run, the samples were mixed thoroughly at a constant stirring rate of 750 rpm. Between each injection, a 150 s gap was maintained to achieve a stable baseline. Data obtained from the ITC experiments were best fit to a one set of binding sites model provided by Microcal PEAQ-ITC software (version 1.40). Heats of dilution and heats caused by potential products formed during the course of the ITC experiments were corrected by performing appropriate blank titrations, consisting of (a) either oxy- or deoxy-Mb in the test buffer solution, (b) test buffer in the LAC, and (c) buffer-buffer solution. Lysozyme was used as a negative control protein in the protein-ligand binding experiments. All the binding experiments were performed 5 times (n = 5) and data obtained from statistical analysis are presented here.
(§4) The change in entropy (ΔS) was calculated using the equation: ΔG = ΔH − TΔS(1) where ΔG represents the change in Gibbs free energy, ΔH is the change in enthalpy, and T is the absolute temperature.
(§5) c values were calculated using the equation:c = nKa[M]t(2) where n is the number of binding sites per receptor (macromolecule), [M]t is macromolecule concentration, and Ka is the association constant.

[5] = target: T4, chicken egg white lysozyme (Gallus gallus, UniProt P00698); test: ITC binding of LAC to negative control protein lysozyme; settings: all tested pH conditions (pH 7.0, 6.4, 6.0)
T4 construct: Horse heart muscle myoglobin (Mb), chicken egg white lysozyme, sodium lactate (LAC), and sodium dithionite were purchased from Sigma Aldrich; purchased Sigma Aldrich, St. Louis, MO, USA; host or cells: chicken egg white
T4 sequence (P00698 19-147): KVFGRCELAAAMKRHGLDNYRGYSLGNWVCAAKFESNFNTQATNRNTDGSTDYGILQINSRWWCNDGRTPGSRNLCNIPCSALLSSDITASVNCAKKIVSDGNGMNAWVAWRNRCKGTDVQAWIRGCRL
Description: Horse heart muscle myoglobin (Mb), chicken egg white lysozyme, sodium lactate (LAC), and sodium dithionite were purchased from Sigma Aldrich, St. Louis, MO, USA. All other chemicals used in the experiments are of analytical grade and were also procured from Sigma Aldrich, St. Louis, MO, USA.
Protein-ligand binding experiments were performed using isothermal titration calorimetry (ITC) (Microcal PEAQ-ITC, Malvern, Chester County, PA, USA). Before starting the experiment, both the ligand solution and the protein solution were purged with either O2 or N2 for 10 min. Both the protein and LAC solutions were thermally equilibrated to 25 °C prior to the start of the titration. LAC was loaded in the […] at an initial concentration of 50 µM and titrated against 500 µM of either oxy- or deoxy-Mb solution, maintaining a 1:10 ratio between ligand and protein. To obtain the working c-value between 10 ≤ c ≤ 500 [51], different protein to ligand molar ratios (1:2, 1:5, 1:10, and 1:20) were tested, and based on the c-value, the molar ratio of 1:10 was selected for all ITC binding studies. A total of 19 injections (2 µL each) from the syringe were used to generate the ITC curves within each experiment. During the experimental run, the samples were mixed thoroughly at a constant stirring rate of 750 rpm. Between each injection, a 150 s gap was maintained to achieve a stable baseline. […]

[6] = target: T2, equine oxy-Mb; test: ITC binding of lactate to oxy-Mb; settings: for Kd: n = 5; for c value: c = nKa[M]t; for ΔS°: from ΔG = ΔH − TΔS
Description: as §2, §3, §4, §5

[7] = target: T5, oxy-Mb (Equus caballus, UniProt P68082); test: Time-resolved UV-Vis spectroscopy of LAC-incubated oxy-Mb; design: species or system horse; settings: all the test pH conditions
T5 construct: Horse heart muscle myoglobin (Mb), chicken egg white lysozyme, sodium lactate (LAC), and sodium dithionite were purchased from Sigma Aldrich; purchased Sigma Aldrich, St. Louis, MO, USA; host or cells: horse heart muscle
T5 sequence (P68082 whole entry): as the sequence (P68082 whole entry) above
Description: as §1

[8] = target: oxy-Mb; design: method as in PMID 8663546; settings: pH 6.5, spectrophotometric, tonometry; cited from earlier work
[9] = pH 6.4, 25 °C, listed as lactate

O2 release compared to oxy-Mb alone ([3]; 0.625 mM LAC, pH 6.0): no significance difference | maximum rate of O2 release ([3]; 2.5 mM LAC, pH 6.4 buffer, 25 °C): 72 nmol/min/g protein | O2 release rate constant ([3]; pH 6.0): 0.04 mM LAC/nM O2 release | O2 release rate constant ([3]; pH 6.4): 0.029 mM LAC/nM O2 release | O2 release rate constant ([3]; pH 7.0): 0.537 mM LAC/nM O2 release | No. of binding sites ([4]; pH 6.0): 0.8 ± 0.02 ^a2 | ΔH° ([4]; pH 6.0): 12.6 ± 0.4 ^d3 kcal mol^−1 | Kd ([4]; pH 6.0, 25 °C): 6.4 ± 0.2 µM | c value ([4]; pH 6.0): 61.2 ± 0.9 ^b1 | ΔS° ([4]; pH 6.0): 0.1 ± 0.0 ^d3 cal mol^−1 K^−1 | No. of binding sites ([4]; pH 6.4): 0.8 ± 0.03 ^a1 | ΔH° ([4]; pH 6.4): 149.5 ± 13.0 ^b1 kcal mol^−1 | Kd ([4]; pH 6.4, 25 °C): ~14 µM | Kd [4, 9]: 13.7 ± 1.6 µM | c value ([4]; pH 6.4): 30.4 ± 4.6 ^c1 | ΔS° ([4]; pH 6.4): 0.55 ± 0.03 ^b1 cal mol^−1 K^−1 | Ka at pH 6.4 relative to pH 6.0 ([4]; pH 6.4 vs pH 6.0): ~ 2 fold | binding of LAC (ITC) ([4]; pH 7.0): No detectable binding | No. of binding sites ([4]; pH 7.0, NDB: no detectable binding): NDB | No. of binding sites ([6]; pH 6.0): 1.0 ± 0.06 ^a2 | ΔH° ([6]; pH 6.0): 34 ± 3.5 ^c2 kcal mol^−1 | Kd ([6]; pH 6.0, 25 °C): 1.9 ± 0.2 µM | ΔG ([6]; pH 6.0, printed as Mb+LAC complex): -7.8 kcal/mol | c value ([6]; pH 6.0): 267.9 ± 30.4 ^d2 | ΔS° ([6]; pH 6.0): 0.14 ± 0.01 ^c2 cal mol^−1 K^−1 | No. of binding sites ([6]; pH 6.4): 0.8 ± 0.03 ^a1 | ΔH° ([6]; pH 6.4): 151.5 ± 18.5 ^b1 kcal mol^−1 | Kd ([6]; pH 6.4, 25 °C): ~7 µM | Kd [6, 9]: 6.9 ± 1.1 µM | ΔG ([6]; pH 6.4, oxy-Mb+LAC complex): -6.9 kcal/mol | c value ([6]; pH 6.4): 67.5 ± 15.5 ^b1 | ΔS° ([6]; pH 6.4): 0.5 ± 0.06 ^b1 cal mol^−1 K^−1 | Ka ([6]; pH 7.0): 0.05 µM⁻¹ | No. of binding sites ([6]; pH 7.0): 0.9 ± 0.7 ^b* | ΔG ([6]; pH 7.0): -6.2 kcal/mol | ΔH° ([6]; pH 7.0): −53.1 ± 0.3 ^a* kcal mol^−1 | Kd ([6]; pH 7.0, 25 °C): 20.7 ± 2.7 µM | c value ([6]; pH 7.0): 22.4 ± 1.4 ^a | ΔS° ([6]; pH 7.0): −0.15 ± 0.01 ^a* cal mol^−1 K^−1 | increase of Ka with drop in pH ([6]; pH 7.0 to pH 6.0): ~ 3 fold | change in UV-Vis spectral data [7]: no change in spectral data
SMILES: CC(O)C(=O)[O-].[Na+] (stereo not drawn) [LAC, sodium lactate]
change in UV-Vis spectral data [1]: marginal changes in the heme peak absorbance (435 nm) | Kd [2]: 2500 µM | binding of LAC (ITC) [5]: no detectable binding; also recorded: did not bound | Kd [8]: 26000 µM
